Type in all cases: biochemical
Holding throughout (conditions): D-compounds panel data; 1 μM ATP

One assay deals with T1, ITK (Homo sapiens, UniProt Q08881).
T1 sequence (Q08881 1-620): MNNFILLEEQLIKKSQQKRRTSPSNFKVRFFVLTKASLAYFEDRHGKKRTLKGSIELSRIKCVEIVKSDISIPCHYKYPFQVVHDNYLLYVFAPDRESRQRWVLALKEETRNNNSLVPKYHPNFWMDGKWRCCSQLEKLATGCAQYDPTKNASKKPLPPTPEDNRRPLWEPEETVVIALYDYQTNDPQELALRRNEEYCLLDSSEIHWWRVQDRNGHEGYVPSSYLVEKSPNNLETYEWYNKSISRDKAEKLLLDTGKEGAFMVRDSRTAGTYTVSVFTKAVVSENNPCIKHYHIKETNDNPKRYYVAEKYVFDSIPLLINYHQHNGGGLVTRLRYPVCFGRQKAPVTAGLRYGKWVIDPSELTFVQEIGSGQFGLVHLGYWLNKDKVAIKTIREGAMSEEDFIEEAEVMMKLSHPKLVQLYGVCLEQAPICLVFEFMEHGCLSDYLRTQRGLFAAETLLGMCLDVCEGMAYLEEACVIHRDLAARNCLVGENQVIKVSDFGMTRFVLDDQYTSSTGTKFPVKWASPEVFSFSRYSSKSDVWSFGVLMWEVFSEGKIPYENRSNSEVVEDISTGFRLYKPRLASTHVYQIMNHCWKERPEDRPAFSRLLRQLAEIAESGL
Briefly: Inhibition of a panel of kinases, in vitro HotSpot kinase assay: ITK. Here is the method: (§1) The degree of inhibition of a panel of kinases is determined using the in vitro HotSpot kinase assay (purified enzymes, ^33P-ATP, an appropriate substrate and 1 μM ATP).

The next assay has as its target SRC (Homo sapiens, UniProt P12931). In words: Inhibition of a panel of kinases, in vitro HotSpot kinase assay: SRC. Here is the method:
as §1

A further assay deals with T2, TEC (Homo sapiens, UniProt P42680).
T2 sequence (P42680 1-631): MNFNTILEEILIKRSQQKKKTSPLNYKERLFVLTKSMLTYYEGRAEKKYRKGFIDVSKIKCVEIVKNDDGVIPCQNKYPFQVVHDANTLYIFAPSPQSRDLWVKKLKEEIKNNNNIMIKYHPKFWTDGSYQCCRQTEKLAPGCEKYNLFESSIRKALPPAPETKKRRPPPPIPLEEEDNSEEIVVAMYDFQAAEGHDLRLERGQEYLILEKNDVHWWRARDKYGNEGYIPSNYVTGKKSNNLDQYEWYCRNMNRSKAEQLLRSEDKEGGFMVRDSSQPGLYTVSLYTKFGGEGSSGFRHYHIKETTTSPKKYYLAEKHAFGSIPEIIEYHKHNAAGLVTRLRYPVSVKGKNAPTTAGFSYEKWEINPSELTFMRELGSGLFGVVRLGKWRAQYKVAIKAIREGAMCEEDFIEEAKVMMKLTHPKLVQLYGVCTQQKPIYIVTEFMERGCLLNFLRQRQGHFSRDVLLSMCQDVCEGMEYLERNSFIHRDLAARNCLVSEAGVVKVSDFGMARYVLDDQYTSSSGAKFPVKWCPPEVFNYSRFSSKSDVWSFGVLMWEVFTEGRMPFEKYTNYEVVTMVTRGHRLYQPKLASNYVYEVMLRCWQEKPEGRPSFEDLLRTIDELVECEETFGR
Briefly: Inhibition of a panel of kinases, in vitro HotSpot kinase assay: TEC. Here is the method:
as §1

Chain of SRC (P12931 whole entry): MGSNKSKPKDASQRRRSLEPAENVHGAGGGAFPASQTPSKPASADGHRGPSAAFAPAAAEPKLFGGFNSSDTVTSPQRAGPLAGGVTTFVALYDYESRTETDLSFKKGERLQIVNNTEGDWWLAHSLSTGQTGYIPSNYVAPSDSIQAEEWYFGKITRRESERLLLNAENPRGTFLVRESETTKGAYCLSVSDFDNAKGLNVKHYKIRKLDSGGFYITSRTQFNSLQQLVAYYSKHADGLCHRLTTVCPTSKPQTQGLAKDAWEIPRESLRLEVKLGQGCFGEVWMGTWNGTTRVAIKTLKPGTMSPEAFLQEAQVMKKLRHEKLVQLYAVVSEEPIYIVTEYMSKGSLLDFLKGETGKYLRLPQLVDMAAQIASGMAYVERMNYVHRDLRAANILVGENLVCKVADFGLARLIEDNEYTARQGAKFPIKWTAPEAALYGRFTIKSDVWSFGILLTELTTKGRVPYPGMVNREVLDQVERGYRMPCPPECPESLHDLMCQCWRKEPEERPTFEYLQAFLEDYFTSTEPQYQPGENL

As usually defined, the IC50 is the concentration that gives 50% inhibition. For the molecule `CC1COc2cc(C(=O)N[C@@H]3CCCN(c4cnc(C(N)=O)c(Nc5cnn(C)c5)n4)[C@@H]3C)ccc2C1` (stereo partly drawn) [Example D-56, 3-[(1-methyl-1H-pyrazol-4-yl)amino]-5-[(2R,3R)-2-methyl-3-(3-methyl-3,4-dihydro-2H-1-benzopyran-7-amido)piperidin-1-yl]pyrazine-2-carboxamide], the half-inhibitory concentration (IC50) on ITK was 100 to 1000 nM; against SRC it was 10 to 100 nM; at TEC, at most 10 nM.

As to `C[C@@H]1[C@H](NC(=O)c2ccc(C3CC3)cc2)CCCN1c1cnc(C(N)=O)c(Nc2ccc(OC3CCN(C)CC3)cc2)n1` [Example D-89], the IC50 lay within 100 to 1000 nM at ITK, 10 to 100 nM on SRC and 10 to 100 nM on TEC.

Regarding `Cc1cc(Nc2nc(N3C[C@@H](NC(=O)c4ccc(C5CC5)cc4F)CC[C@@H]3C)cnc2C(N)=O)sn1` [Example D-78, 5-[(2S,5S)-5-(4-cyclopropyl-2-fluorobenzamido)-2-methylpiperidin-1-yl]-3-[(3-methyl-1,2-thiazol-5-yl)amino]pyrazine-2-carboxamide], the IC50 against ITK is 1000 to 10000 nM; against SRC it was 100 to 1000 nM; against TEC, 1000 to 10000 nM.

With `C[C@@H]1[C@H](NC(=O)C23CC(C2)C3)CCCN1c1cnc(C(N)=O)c(Nc2cnn(C)c2)n1` [Example D-90, 5-[(2R,3R)-3-{bicyclo[1.1.1]pentane-1-amido}-2-methylpiperidin-1-yl]-3-[(1-methyl-1H-pyrazol-4-yl)amino]pyrazine-2-carboxamide], the concentration for half-maximal inhibition (IC50) lay within 100 to 1000 nM against ITK, 100 to 1000 nM against SRC and 10 to 100 nM against TEC.

For `Cc1cc(Nc2nc(N3C[C@@H](NC(=O)N(C)C)CC[C@H]3C)cnc2C(N)=O)sn1` [Example D-75, 5-[(2R,5S)-5-[(dimethylcarbamoyl)amino]-2-methylpiperidin-1-yl]-3-[(3-methyl-1,2-thiazol-5-yl)amino]pyrazine-2-carboxamide], the IC50 against ITK lay in the range of 1000 to 10000 nM; at SRC it was 100 to 1000 nM; against TEC, 100 to 1000 nM.

For `Cn1cc(Nc2nc(N3CCC[C@@H](NC(=O)c4ccc(C(C)(C)O)cc4)C3)nnc2C(N)=O)cn1` [Example D-39, 3-[(3R)-3-[4-(2-hydroxypropan-2-yl)benzamido]piperidin-1-yl]-5-[(1-methyl-1H-pyrazol-4-yl)amino]-1,2,4-triazine-6-carboxamide], the half-maximal inhibitory concentration (IC50) at ITK was 100 to 1000 nM; against SRC it was 100 to 1000 nM; against TEC, 10 to 100 nM.

On to `C[C@@H]1[C@H](NC(=O)c2ccc(C3CC3)cc2)CCCN1c1cnc(C(N)=O)c(Nc2ccc(C3CCOCC3)cc2)n1` [Example D-317, 5-[(2R,3R)-3-(4-cyclopropylbenzamido)-2-methylpiperidin-1-yl]-3-{[4-(oxan-4-yl)phenyl]amino}pyrazine-2-carboxamide], for which the IC50 is over 10000 nM against ITK, over 10000 nM against SRC and 10 to 100 nM against TEC.

Consider `C[C@@H]1[C@H](NC(=O)c2ccc(C3CC3)cc2)CCCN1c1cnc(C(N)=O)c(Nc2ccc(N3CCN(C)CC3)c(C(F)(F)F)c2)n1` [Example D-92, 5-[(2R,3R)-3-(4-cyclopropylbenzamido)-2-methylpiperidin-1-yl]-3-{[4-(4-methylpiperazin-1-yl)-3-(trifluoromethyl)phenyl]amino}pyrazine-2-carboxamide], for which the 50% inhibitory concentration (IC50) against ITK lay in the range of 1000 to 10000 nM; against SRC, 100 to 1000 nM; on TEC, 10 to 100 nM.

With `C[C@@H]1[C@H](NC(=O)c2ccc(C3CC3)cc2)CCCN1c1cnc(C(N)=O)c(Nc2ccc(OC(F)(F)F)cc2)n1` [Example D-42, 5-[(2R,3R)-3-(4-cyclopropylbenzamido)-2-methylpiperidin-1-yl]-3-{[4-(trifluoromethoxy)phenyl]amino}pyrazine-2-carboxamide], the values for the IC50 at ITK, against SRC and against TEC were over 10000 nM, over 10000 nM and 100 to 1000 nM, respectively.

As for `C[C@@H]1[C@H](N2Cc3cc(Br)ccc3C2=O)CCCN1c1cnc(C(N)=O)c(Nc2cnn(C)c2)n1` [Example D-27, 5-[(2R,3R)-3-(5-bromo-1-oxo-2,3-dihydro-1H-isoindol-2-yl)-2-methylpiperidin-1-yl]-3-[(1-methyl-1H-pyrazol-4-yl)amino]pyrazine-2-carboxamide], the IC50 against ITK is 100 to 1000 nM; against SRC, 10 to 100 nM; on TEC it was at most 10 nM.

Take `C[C@@H]1[C@H](NC(=O)c2ccc(C(C)(C)CO)cc2)CCCN1c1cnc(C(N)=O)c(Nc2cnn(C)c2)n1` [Example D-94, 5-[(2R,3R)-3-[4-(1-hydroxy-2-methylpropan-2-yl)benzamido]-2-methylpiperidin-1-yl]-3-[(1-methyl-1H-pyrazol-4-yl)amino]pyrazine-2-carboxamide]: the values for the IC50 on ITK, against SRC and against TEC were 100 to 1000 nM, 10 to 100 nM and 10 to 100 nM, respectively.

For `CN(C)C(=O)N[C@@H]1CCCN(c2cnc(C(N)=O)c(Nc3ccc(C4(C)CCN(C5CCCC5)CC4)cc3)n2)[C@H]1CO` [Example D-60, 3-{[4-(1-cyclopentyl-4-methylpiperidin-4-yl)phenyl]amino}-5-[(2R,3R)-3-[(dimethylcarbamoyl)amino]-2-(hydroxymethyl)piperidin-1-yl]pyrazine-2-carboxamide], the half-maximal inhibitory concentration (IC50) against ITK fell in the range of 100 to 1000 nM; against SRC, 100 to 1000 nM; on TEC it was 1000 to 10000 nM.

As to `Cn1cc(Nc2nc(N3CCC[C@@H]4[C@H]3CCN4C(=O)c3ccccc3)cnc2C(N)=O)cn1` (racemic) [Example D-54, (racemic)-cis-5-{1-benzoyl-octahydro-1H-pyrrolo[3,2-b]pyridin-4-yl}-3-[(1-methyl-1H-pyrazol-4-yl)amino]pyrazine-2-carboxamide], the half-maximal inhibitory concentration (IC50) at ITK was in the range of 1000 to 10000 nM; on SRC, 100 to 1000 nM; against TEC, 100 to 1000 nM.

As to `Cc1cc(Nc2nc(N3C[C@H](NC(=O)N(C)C)CC[C@@H]3C)cnc2C(N)=O)sn1` [Example D-74, 5-[(2S,5R)-5-[(dimethylcarbamoyl)amino]-2-methylpiperidin-1-yl]-3-[(3-methyl-1,2-thiazol-5-yl)amino]pyrazine-2-carboxamide], the figures for the 50% inhibitory concentration (IC50) at ITK, against SRC and against TEC were over 10000 nM, 1000 to 10000 nM and 1000 to 10000 nM, respectively.

For the molecule `C[C@@H]1[C@H](NC(=O)c2ccc(C3CC3)cc2F)CCCN1c1cnc(C(N)=O)c(Nc2ccc(C3(C)CCN(C4CCCC4)CC3)cc2)n1` [Example D-66, 3-{[4-(1-cyclopentyl-4-methylpiperidin-4-yl)phenyl]amino}-5-[(2R,3R)-3-(4-cyclopropyl-2-fluorobenzamido)-2-methylpiperidin-1-yl]pyrazine-2-carboxamide], the half-maximal inhibitory concentration (IC50) against ITK is 10 to 100 nM; against SRC, at most 10 nM; against TEC, at most 10 nM.

Consider `C[C@@H]1[C@H](NC(=O)c2ccc(C(C)(C)O)nc2)CCCN1c1cnc(C(N)=O)c(Nc2cnn(C)c2)n1` [Example D-40, 5-[(2R,3R)-3-[6-(2-hydroxypropan-2-yl)pyridine-3-amido]-2-methylpiperidin-1-yl]-3-[(1-methyl-1H-pyrazol-4-yl)amino]pyrazine-2-carboxamide], for which the 50% inhibitory concentration (IC50) against ITK is 100 to 1000 nM; against SRC, 10 to 100 nM; against TEC, at most 10 nM.

For the molecule `CN1CCN(C(=O)c2ccc(Nc3nc(N[C@H]4CC[C@H](NC(=O)N(C)C)CC4)cnc3C(N)=O)cc2)CC1` [Example D-69, 3-{[4-(4-methylpiperazine-1-carbonyl)phenyl]amino}-5-{[(1 r,4r)-4-[(dimethylcarbamoyl)amino]cyclohexyl]amino}pyrazine-2-carboxamide], the concentration for half-maximal inhibition (IC50) against ITK was in the range of 1000 to 10000 nM; against SRC, 100 to 1000 nM; at TEC it was 1000 to 10000 nM.

Take `C[C@@H]1[C@H](NC(=O)c2cnc(C3CC3)nc2)CCCN1c1cnc(C(N)=O)c(Nc2cnn(C)c2)n1` [Example D-86, 5-[(2R,3R)-3-(2-cyclopropylpyrimidine-5-amido)-2-methylpiperidin-1-yl]-3-[(1-methyl-1H-pyrazol-4-yl)amino]pyrazine-2-carboxamide]: the half-maximal inhibitory concentration (IC50) was 10 to 100 nM on ITK, 10 to 100 nM against SRC and at most 10 nM against TEC.

The record behind these values is patent US20210070748A1, “INHIBITORS OF BRUTONS TYROSINE KINASE” (Pharmacyclics LLC, priority 2015, published 2021).
